The record followed here is US9499553B2 (CHUGAI SEIYAKU KABUSHIKI KAISHA, priority 2013, dated 2016).

The target of test [1] is T1, human NaPi-IIb (Homo sapiens, UniProt O95436).
T1 construct: expressed in transfected cells
T1 sequence (O95436 1-690): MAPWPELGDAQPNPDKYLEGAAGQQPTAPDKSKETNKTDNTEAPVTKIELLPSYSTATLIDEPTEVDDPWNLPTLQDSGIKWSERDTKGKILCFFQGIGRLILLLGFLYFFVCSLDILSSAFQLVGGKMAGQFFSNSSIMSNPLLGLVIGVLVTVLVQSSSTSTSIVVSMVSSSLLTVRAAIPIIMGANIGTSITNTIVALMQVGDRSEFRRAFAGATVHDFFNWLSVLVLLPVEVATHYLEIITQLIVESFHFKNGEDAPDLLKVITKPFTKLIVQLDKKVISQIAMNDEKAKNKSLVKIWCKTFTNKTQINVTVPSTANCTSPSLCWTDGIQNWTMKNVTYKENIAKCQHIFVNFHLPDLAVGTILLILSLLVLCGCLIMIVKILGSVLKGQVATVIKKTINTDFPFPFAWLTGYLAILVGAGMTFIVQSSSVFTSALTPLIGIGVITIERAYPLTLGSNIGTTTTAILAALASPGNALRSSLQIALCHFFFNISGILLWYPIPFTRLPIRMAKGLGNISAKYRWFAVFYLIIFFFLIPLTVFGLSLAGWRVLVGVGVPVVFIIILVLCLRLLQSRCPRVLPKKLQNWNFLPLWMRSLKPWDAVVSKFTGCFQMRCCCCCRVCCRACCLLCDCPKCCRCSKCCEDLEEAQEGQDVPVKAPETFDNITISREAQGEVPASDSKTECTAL
Description: Inhibitory effect on 33PO4 uptake into human NaPi-IIb-expressing CHO cells. Type of test: cell-based. Conditions: read-out: IC50. The essentials:
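Uptake of ³³PO4 was measured by scintillation counting after ice-cold buffer A washes. Cells were CHO stably expressing human NaPi-IIb, seeded overnight, and exposed to ³³PO4 in buffer A at room temperature.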

Test [2] concerns the target T2, human PiT-2 (Homo sapiens, UniProt Q08357).
T2 construct: expressed in transfected cells; host or cells: CHO cells
T2 sequence (Q08357 1-652): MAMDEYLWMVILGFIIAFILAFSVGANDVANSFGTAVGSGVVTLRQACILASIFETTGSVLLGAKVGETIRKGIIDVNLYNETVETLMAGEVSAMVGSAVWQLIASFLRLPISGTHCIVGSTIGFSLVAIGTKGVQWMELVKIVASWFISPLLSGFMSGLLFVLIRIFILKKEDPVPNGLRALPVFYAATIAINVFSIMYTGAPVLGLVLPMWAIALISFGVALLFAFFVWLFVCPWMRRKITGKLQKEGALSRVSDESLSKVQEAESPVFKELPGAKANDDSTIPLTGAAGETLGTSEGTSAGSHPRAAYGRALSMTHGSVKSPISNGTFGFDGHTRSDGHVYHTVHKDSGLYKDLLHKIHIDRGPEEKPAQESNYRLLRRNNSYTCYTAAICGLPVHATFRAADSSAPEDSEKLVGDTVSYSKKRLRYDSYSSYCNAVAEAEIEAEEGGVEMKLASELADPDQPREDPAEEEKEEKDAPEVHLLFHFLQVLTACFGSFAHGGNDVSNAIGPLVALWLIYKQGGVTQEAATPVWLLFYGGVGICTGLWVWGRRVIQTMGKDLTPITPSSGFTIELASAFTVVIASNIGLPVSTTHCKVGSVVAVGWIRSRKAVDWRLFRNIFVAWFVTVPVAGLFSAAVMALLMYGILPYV
The test can be described thus: Inhibitory effect on 33PO4 uptake into human PiT-2-expressing CHO cells. Conditions: pH 6.5, read-out: IC50 against 33PO4 uptake into human PiT-2-expressing cells. Type of test: cell-based. The essentials:
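CHO cells transfected with human PiT-2 or empty vector, then exposed to ^33PO4 at room temperature after compound preincubation. Uptake counted by scintillation. Inhibition computed from PiT-2 minus vector-cell uptake, relative to the DMSO control.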

Test [3] relates to chronic kidney disease model rat. Description: Suppressive effect on calcium deposition in blood vessel of chronic kidney disease model rat. Conditions: thoracic aorta, dosage 0.3% in feed, 14 weeks. Type of test: in vivo. The method, then: Test Example 9: Suppressive Effect on Calcium Deposition in Blood Vessel of Chronic Kidney Disease Model Rat
From the same animal as that in Test Example 7, the thoracic aorta was collected 14 weeks after the start of administration of the test compound, and the dry weight was measured. The measured dry thoracic aorta was subjected to ashing and dissolved in a certain amount of hydrochloric acid, and then the calcium concentration in the solution was measured using OCPC method to determine the amount of calcium per gram of the thoracic aorta dry weight (Katsumata K, Kusano K, Hirata M, Tsunemi K, Nagano N, Burke S K, Fukushima N. Sevelamer hydrochloride prevents ectopic calcification and renal osteodystrophy in chronic renal failure rats. Kidney Int. 2003 August; 64(2): 441-450.) The rate of suppression of calcium deposition in blood vessel was determined according to the following expression: Rate (%) of suppression of calcium deposition in blood vessel=(1−[(Amount of calcium per gram of dried blood vessel of the test compound-treated pathological group)−(Amount of calcium per gram of dried blood vessel of the normal group)]/[(Amount of calcium per gram of dried blood vessel of the reference pathological group)−(Amount of calcium per gram of dried blood vessel of the normal group)])×100

Take `COCCN(C)CCOc1ccc(CN2C(=O)C(C(=O)Nc3ccc(C(F)(F)F)cc3-c3cc(C(F)(F)F)ncn3)=C(O)C3(CCCC3)N2C)c(F)c1F` [Example 14, 7-[[2,3-Difluoro-4-[2-[2-methoxyethyl(methyl)amino]ethoxy]phenyl]methyl]-10-hydroxy-6-methyl-8-oxo-N-[4-(trifluoromethyl)-2-[6-(trifluoromethyl)pyrimidin-4-yl]phenyl]-6,7-diazaspiro[4.5]dec-9-ene-9-carboxamide]: the IC50 – broadly, the concentration needed to halve the response being measured – in test [1] was found to be 8.9 µM; in test [2], 2.6 µM. Further, in test [3], the “Rate of inhibition (%) (suppression of calcium deposition in blood vessel)” value was 100% 100%.
